Among the data in ChEMBL document CHEMBL5303765, “Data for DCP probe BAY-7081” (2023) are inhibition, delta Tm Staurosporine positive control and ΔTm values, retold here.

The target in assay [1] is Sodium-dependent serotonin transporter (Homo sapiens) (UniProt P31645). As to conditions: Compound concentration 10.0 uM.
The target in assay [2] is T1, Serine/threonine-protein kinase tousled-like 1 (Homo sapiens) (UniProt Q9UKI8).
T1 sequence (whole entry): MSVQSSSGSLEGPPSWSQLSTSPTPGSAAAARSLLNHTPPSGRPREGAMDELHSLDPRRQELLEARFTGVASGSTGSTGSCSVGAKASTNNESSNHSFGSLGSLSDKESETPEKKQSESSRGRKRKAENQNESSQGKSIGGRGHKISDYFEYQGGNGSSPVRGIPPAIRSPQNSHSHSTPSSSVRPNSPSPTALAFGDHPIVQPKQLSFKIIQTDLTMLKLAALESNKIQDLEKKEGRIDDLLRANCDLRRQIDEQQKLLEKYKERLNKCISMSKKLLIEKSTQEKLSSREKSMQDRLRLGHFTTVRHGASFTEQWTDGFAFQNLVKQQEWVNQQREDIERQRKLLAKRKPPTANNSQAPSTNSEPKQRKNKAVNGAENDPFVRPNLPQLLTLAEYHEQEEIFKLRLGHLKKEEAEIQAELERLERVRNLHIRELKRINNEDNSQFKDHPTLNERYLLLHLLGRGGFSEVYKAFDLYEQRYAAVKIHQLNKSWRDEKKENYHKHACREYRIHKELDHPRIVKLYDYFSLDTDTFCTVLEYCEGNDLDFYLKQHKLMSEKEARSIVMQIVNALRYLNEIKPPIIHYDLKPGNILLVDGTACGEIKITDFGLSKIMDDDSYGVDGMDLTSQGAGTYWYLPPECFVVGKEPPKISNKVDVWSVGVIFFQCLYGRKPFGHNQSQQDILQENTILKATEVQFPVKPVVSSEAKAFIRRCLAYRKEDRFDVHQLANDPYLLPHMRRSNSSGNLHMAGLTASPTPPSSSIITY
In words: TLK1 SGC Tm panel (DSF). As to conditions: for ΔTm: Compound concentration 10.0 uM.

Assay [3] has as its target Mitogen-activated protein kinase 10 (Homo sapiens) (UniProt P53779). As to the kind of experiment: MAPK10 SGC Tm panel (DSF). The conditions noted are these: for ΔTm: Compound concentration 10.0 uM.
For assay [4], the target named is T2, Aurora kinase A (Homo sapiens) (UniProt O14965).
T2 sequence (whole entry): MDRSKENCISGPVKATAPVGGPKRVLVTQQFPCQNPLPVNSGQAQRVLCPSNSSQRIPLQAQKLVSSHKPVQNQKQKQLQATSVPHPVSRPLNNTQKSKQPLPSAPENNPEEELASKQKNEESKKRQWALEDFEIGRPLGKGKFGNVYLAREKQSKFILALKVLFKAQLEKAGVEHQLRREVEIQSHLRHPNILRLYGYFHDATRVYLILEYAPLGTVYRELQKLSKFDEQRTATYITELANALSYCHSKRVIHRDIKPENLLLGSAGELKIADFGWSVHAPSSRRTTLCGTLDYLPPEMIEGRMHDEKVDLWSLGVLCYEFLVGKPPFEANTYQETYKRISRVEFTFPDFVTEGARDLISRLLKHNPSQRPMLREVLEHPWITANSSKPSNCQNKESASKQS
As to the kind of experiment: STK6 SGC Tm panel (DSF). The conditions noted are these: for ΔTm: Compound concentration 10.0 uM.

In assay [5] the target is T3, Serine/threonine-protein kinase 3 (Homo sapiens) (UniProt Q13188).
T3 sequence (whole entry): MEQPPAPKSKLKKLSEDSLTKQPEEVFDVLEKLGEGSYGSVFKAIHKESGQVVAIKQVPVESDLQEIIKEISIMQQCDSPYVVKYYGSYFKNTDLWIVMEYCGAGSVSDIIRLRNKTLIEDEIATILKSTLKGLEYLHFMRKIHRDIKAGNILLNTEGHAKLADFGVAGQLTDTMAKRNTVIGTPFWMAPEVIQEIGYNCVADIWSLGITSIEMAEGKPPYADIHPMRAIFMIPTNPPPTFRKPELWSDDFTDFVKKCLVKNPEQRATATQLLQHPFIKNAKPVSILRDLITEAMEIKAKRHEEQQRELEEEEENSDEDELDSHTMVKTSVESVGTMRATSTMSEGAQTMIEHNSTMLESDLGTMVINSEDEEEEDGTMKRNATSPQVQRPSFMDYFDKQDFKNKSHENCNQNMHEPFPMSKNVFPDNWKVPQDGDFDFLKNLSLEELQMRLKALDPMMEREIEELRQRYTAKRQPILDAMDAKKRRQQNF
As to the kind of experiment: STK3 SGC Tm panel (DSF). The conditions noted are these: for ΔTm: Compound concentration 10.0 uM.

The target in assay [6] is Casein kinase I isoform delta (Homo sapiens) (UniProt P48730). As to the kind of experiment: CSNK1D SGC Tm panel (DSF). The conditions noted are these: for ΔTm: Compound concentration 10.0 uM.
Assay [7] concerns the target T4, Serine/threonine-protein kinase 4 (Homo sapiens) (UniProt Q13043).
T4 sequence (whole entry): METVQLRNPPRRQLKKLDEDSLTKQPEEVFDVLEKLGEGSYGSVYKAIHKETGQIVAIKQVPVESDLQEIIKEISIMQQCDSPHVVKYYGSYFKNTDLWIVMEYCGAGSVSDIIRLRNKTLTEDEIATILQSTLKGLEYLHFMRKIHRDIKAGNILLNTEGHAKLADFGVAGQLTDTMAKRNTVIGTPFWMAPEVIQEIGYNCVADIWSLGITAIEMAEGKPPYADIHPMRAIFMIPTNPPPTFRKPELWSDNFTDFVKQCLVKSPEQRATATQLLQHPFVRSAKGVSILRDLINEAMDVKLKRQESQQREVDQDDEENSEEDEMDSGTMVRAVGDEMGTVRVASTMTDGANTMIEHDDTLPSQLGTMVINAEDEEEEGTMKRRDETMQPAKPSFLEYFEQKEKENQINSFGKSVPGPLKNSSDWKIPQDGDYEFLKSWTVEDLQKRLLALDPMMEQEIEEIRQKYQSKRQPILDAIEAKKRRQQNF
In words: STK4 SGC Tm panel (DSF). As to conditions: for ΔTm: Compound concentration 10.0 uM.

Assay [8] addresses SRSF protein kinase 3 (Homo sapiens) (UniProt Q9UPE1). As to the kind of experiment: MSSK1 SGC Tm panel (DSF). The conditions noted are these: for ΔTm: Compound concentration 10.0 uM.
Assay [9] deals with D(1A) dopamine receptor (Homo sapiens) (UniProt P21728). As to conditions: Compound concentration 10.0 uM.
Chain of D(1A) dopamine receptor (Homo sapiens) (P21728 whole entry): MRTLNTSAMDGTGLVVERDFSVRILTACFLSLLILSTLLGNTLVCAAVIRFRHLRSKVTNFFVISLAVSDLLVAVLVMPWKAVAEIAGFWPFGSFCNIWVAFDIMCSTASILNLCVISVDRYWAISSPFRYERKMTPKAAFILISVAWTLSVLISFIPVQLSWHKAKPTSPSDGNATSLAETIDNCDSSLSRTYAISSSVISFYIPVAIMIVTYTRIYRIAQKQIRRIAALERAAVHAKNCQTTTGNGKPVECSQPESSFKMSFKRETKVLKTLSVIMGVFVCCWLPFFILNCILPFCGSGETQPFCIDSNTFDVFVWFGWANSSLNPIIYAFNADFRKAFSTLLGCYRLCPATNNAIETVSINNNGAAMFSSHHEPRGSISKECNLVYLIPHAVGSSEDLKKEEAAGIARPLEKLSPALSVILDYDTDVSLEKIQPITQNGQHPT

Chain of SRSF protein kinase 3 (Homo sapiens) (Q9UPE1 whole entry): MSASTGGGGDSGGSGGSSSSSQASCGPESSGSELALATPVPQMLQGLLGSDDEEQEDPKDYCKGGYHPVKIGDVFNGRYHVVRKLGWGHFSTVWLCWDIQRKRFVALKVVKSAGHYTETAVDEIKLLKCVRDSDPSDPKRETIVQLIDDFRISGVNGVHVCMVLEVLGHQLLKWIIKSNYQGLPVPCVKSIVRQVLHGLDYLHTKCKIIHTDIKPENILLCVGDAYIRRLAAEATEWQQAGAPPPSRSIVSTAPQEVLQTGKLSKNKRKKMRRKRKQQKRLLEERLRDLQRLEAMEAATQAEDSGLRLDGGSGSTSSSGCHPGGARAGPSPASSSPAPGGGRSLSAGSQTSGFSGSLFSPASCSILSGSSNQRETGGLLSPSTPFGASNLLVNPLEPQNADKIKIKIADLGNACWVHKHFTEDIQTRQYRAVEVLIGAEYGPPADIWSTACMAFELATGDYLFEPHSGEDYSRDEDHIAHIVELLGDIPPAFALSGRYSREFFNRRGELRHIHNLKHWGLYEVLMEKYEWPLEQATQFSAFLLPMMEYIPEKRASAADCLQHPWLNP
Chain of Mitogen-activated protein kinase 10 (Homo sapiens) (P53779 whole entry): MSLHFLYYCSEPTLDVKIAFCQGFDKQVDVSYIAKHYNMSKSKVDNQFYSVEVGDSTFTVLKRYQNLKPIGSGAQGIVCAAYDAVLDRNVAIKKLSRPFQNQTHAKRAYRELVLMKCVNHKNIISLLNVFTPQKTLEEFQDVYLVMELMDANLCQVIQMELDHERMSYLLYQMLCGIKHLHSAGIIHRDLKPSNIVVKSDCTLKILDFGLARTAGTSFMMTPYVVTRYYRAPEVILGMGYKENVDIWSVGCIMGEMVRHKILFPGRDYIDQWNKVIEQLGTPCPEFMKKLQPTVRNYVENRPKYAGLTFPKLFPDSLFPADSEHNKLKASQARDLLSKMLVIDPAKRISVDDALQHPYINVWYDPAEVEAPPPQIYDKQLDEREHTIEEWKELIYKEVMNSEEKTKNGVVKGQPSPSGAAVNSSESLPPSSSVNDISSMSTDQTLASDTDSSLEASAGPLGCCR
Chain of Sodium-dependent serotonin transporter (Homo sapiens) (P31645 whole entry, looked up): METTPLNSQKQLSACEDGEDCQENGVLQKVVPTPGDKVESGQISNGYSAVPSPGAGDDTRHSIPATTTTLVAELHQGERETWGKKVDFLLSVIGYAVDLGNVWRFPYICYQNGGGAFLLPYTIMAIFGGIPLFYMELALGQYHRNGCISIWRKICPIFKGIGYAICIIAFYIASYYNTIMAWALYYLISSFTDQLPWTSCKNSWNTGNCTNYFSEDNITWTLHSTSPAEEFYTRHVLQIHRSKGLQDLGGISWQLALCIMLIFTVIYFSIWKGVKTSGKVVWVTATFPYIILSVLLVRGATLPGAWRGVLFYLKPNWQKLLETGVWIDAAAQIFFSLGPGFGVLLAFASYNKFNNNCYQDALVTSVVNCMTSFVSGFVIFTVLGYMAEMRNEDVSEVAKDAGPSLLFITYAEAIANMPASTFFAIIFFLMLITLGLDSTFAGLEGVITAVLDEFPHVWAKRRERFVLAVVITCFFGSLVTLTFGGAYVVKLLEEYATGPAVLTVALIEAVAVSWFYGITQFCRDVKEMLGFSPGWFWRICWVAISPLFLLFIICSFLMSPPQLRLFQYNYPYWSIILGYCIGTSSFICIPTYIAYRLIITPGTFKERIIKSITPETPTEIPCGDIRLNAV
Chain of Casein kinase I isoform delta (Homo sapiens) (P48730 whole entry, looked up, canonical isoform): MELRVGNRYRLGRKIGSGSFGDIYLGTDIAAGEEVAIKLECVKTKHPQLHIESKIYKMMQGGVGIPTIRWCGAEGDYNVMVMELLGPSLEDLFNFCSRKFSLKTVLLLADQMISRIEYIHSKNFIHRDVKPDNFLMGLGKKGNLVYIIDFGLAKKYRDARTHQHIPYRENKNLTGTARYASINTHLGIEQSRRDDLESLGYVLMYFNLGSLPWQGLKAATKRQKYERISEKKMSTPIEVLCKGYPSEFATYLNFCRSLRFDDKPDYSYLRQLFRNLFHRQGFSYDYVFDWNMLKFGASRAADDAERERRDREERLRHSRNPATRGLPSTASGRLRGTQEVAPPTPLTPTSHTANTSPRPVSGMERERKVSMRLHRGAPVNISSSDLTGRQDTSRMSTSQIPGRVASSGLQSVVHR

Consider `CCC[C@H]1CNCc2c1[nH]c(=O)c(C#N)c2N1CCC2(CC1)CC2`, for which the inhibition in assay [1] was 6.23%; in assay [9] it was -2.37%. Besides, the delta Tm Staurosporine positive control in assay [2] amounted to 9.74; in assay [3], 6.75; in [4], 20.5; in assay [5] it was 16.5; in [6] it was 2.05; in assay [7] it was 16.2. The delta Tm Staurosporine positive control in assay [8] was found to be 4.52. Besides, the ΔTm in [2] was -1.34; in assay [3] it was -0.509; in [4], 0.00646; in assay [5], -0.737; in [6] it was -0.142; in [7], -0.568. Also, the ΔTm in assay [8] was -0.144.
Turning to `CCC[C@@H]1CNCc2c1[nH]c(=O)c(C#N)c2N1CCC2(CC1)CC2`, the inhibition was -1.15% in [1] and 11% in [9]. In addition, the delta Tm Staurosporine positive control in [2] stood at 9.74; in assay [3], 6.75; in [4], 20.5; in [5] it was 16.5; in [6] it was 2.05; in assay [7], 16.2. Moreover, the delta Tm Staurosporine positive control in [8] was 4.52. Besides, the ΔTm is -1.18 in assay [2]; -0.405 in [3]; -0.0175 in assay [4]; -0.767 in assay [5]; 0.052 in assay [6]; -0.519 in assay [7]. Besides, the ΔTm in [8] was -0.164.
